The values below come from patent publication US20230279025A1, “KRAS G12D INHIBITORS” (Mirati Therapeutics, Inc., priority 2020, published 2023).

Each structure is given as a SMILES string. Structures can show the parent of a compound that is named as a salt.

The target in assay [1] is T1, KRas G12D (Homo sapiens (Human), UniProt P01116, G12D). Kind of assay: KRas G12D Binding Assay (TR-FRET displacement of Cy5 labelled tracer). The following applies: GDP-loaded KRAS G12D (amino acids 1:169), 60 minute incubation at 22° C. Here is the method: After a 60 minute incubation at 22° C., the reaction was measured using a PerkinElmer EnVision multimode plate reader via TR-FRET dual wavelength detection, and the percent of control (POC) calculated using a ratiometric emission factor. […] The POC values were fit to a 4-parameter logistic curve and the IC50 value was determined as the concentration where the curve crosses 50 POC.
ND stands for “not determined.”
(In TR-FRET formats the signal depends on donor and acceptor labels being close together.)
Target sequence in this assay (P01116 other isoform, or with tags, fused parts or gaps G12D): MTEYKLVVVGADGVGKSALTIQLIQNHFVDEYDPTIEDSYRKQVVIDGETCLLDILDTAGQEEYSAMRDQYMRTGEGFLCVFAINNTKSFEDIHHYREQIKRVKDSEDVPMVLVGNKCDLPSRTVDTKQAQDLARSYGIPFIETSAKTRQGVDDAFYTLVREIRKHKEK

In assay [2] the target is T1, KRas G12D. Kind of assay: KRas G12D Surface Plasmon Resonance (SPR) Binding Assay. The following applies: Biacore T200, immobilized biotinylated KRAS protein, 1:1 binding model. The method, then:
Briefly, 1L of 1.05X HBS-Mg buffer (262.5 mM Bioultra Hepes, pH 7.5, 157.5 mM NaCl, 105 mM MgCl2, 0.525 mM TCEP, 0.0305% Brij-35) was prepared and filter sterilized using a 0.22 μm bottle top filter. Approximately 50 mL of 1.05X HBS-Mg buffer was removed and saved for future dilutions. A 50 mL aliquot of DMSO (Sigma Aldrich DMSO Lot. #SHBK2079) was added and continued to stir for 10 minutes, creating the final 1.0X HBS-Mg buffer (250 mM Bioultra Hepes pH 7.5, 150 mM NaCl, 100 mM MgCl2, 0.5 mM TCEP, 0.03% Brij-35).
Biacore T200 instrument was primed using 1.0X HBS-Mg buffer before docking a GE Streptavidin (SA) chip and then primed two additional times prior to beginning the immobilization step. All immobilized protein mixtures were created using 3-5 mg/mL Biotinylated Avidin-tagged KRAS protein using the following immobilization settings: SA chip type, 1 flow cells per cycle, 720 second contact time, and 5 ul/min flow rate. Normalization of the detector was also performed during the immobilization step using the GE BiaNormalize solution.
All compounds were diluted to 10 mM in 100% DMSO prior to being diluted 20X in 1.05X buffer. Another 10X dilution was created using 1.0X buffer prior to performing a series of 3X dilutions to create a compound concentration curve using the following assay settings: 20C analysis temperature, General Settings=10 Hz data collection rate and multi-detection; Assay Steps=all set to LMW kinetics; Cycle Types=LMW kinetics (60 s contact time, 120 s dissociation time, 100 ul/min flow rate, extra wash after injection with 50% DMSO, flow path 1,2,3,4); Flow path detection=2-1, 4-3). Data evaluation was performed using the Biacore T200 Evaluation software and data fit to 1:1 binding model. ND=not determined.
Target sequence in this assay (P01116-2 other isoform, or with tags, fused parts or gaps G12D): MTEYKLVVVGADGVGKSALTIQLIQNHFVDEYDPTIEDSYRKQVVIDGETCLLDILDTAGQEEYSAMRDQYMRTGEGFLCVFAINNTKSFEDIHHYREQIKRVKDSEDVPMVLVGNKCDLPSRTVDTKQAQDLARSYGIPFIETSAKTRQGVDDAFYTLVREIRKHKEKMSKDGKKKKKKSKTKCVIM
On the technique in general: SPR reads the build-up and loss of mass on a sensor chip optically.

Broadly, the IC50 is the point on the concentration scale where inhibition reaches its midpoint. Low values mean greater potency, high ones weaker potency. As a reminder, the Kd is a measure of binding affinity in units of concentration. Consider `Fc1c(-c2cccc3cccc(Cl)c23)ncc2c(N3CC4CCC(C3)N4)nc(OC[C@@]34CCCN3C[C@H](F)C4)nc12` (stereo in doubt) [Example 134, 4-((1R,5S)-3,8-diazabicyclo[3.2.1]octan-3-yl)-7-(8-chloronaphthalen-1-yl)-8-fluoro-2-((2-fluorotetrahydro-1H-pyrrolizin-7a(5H)-yl)methoxy)pyrido[4,3-d]pyrimidine], for which the IC50 at KRas G12D [1] was determined as 0.0037 µM. Besides, the Kd on KRas G12D [2] was 0.0069 µM.

On KRas G12D [1], `CN1CCC[C@H]1COc1nc(N2C[C@H]3CC[C@@H](C2)N3)c2cnc(-c3cc(O)cc4ccccc34)cc2n1` [Example 1, 4-(4-((1R,5S)-3,8-diazabicyclo[3.2.1]octan-3-yl)-2-(((S)-1-methylpyrrolidin-2-yl)methoxy)pyrido[4,3-d]pyrimidin-7-yl)naphthalen-2-ol tris-hydrochloride salt] showed an IC50 of 0.125 µM. Moreover, binding on KRas G12D [2] was put at a Kd of 0.0977 µM.

`Cn1ccnc1CCOc1nc(N2C[C@H]3CC[C@@H](C2)N3)c2cnc(-c3cc(O)cc4ccccc34)c(F)c2n1` [Example 3, 4-(4-((1R,5S)-3,8-diazabicyclo[3.2.1]octan-3-yl)-8-fluoro-2-(2-(1-methyl-1H-imidazol-2-yl)ethoxy)pyrido[4,3-d]pyrimidin-7-yl)naphthalen-2-ol]: the half-inhibitory concentration (IC50) on KRas G12D [1] was found to be 0.0095 µM. The compound further gave a dissociation constant Kd at KRas G12D [2] of 0.0083 µM.

`Oc1cc(-c2ncc3c(N4C[C@H]5CC[C@@H](C4)N5)nc(OCCc4ccccn4)nc3c2F)c2ccccc2c1` [Example 4, 4-(4-((1R,5S)-3,8-diazabicyclo[3.2.1]octan-3-yl)-8-fluoro-2-(2-(pyridin-2-yl)ethoxy)pyrido[4,3-d]pyrimidin-7-yl)naphthalen-2-ol]: the IC50 at KRas G12D [1] turned out to be 0.496 µM. This compound registered a Kd on KRas G12D [2] of 0.156 µM.

In turn, `Cn1nccc1COc1nc(N2C[C@H]3CC[C@@H](C2)N3)c2cnc(-c3cc(O)cc4ccccc34)c(F)c2n1` [Example 5, 4-(4-((1R,5S)-3,8-diazabicyclo[3.2.1]octan-3-yl)-8-fluoro-2-((1-methyl-1H-pyrazol-5-yl)methoxy)pyrido[4,3-d]pyrimidin-7-yl)naphthalen-2-ol] came in with an IC50 on KRas G12D [1] of 0.723 µM. On KRas G12D [2], this compound returned a dissociation constant Kd of 0.295 µM.

In the case of `Cc1cccnc1CCOc1nc(N2C[C@H]3CC[C@@H](C2)N3)c2cnc(-c3cc(O)cc4ccccc34)c(F)c2n1` [Example 6, 4-(4-((1R,5S)-3,8-diazabicyclo[3.2.1]octan-3-yl)-8-fluoro-2-(2-(3-methylpyridin-2-yl)ethoxy)pyrido[4,3-d]pyrimidin-7-yl)naphthalen-2-ol], the half-maximal inhibitory concentration (IC50) at KRas G12D [1] was found to be 0.434 µM. The Kd on KRas G12D [2] came to 0.442 µM.

`Oc1cc(-c2ncc3c(N4C[C@H]5CC[C@@H](C4)N5)nc(OCCc4ncccn4)nc3c2F)c2ccccc2c1` [Example 7, 4-(4-((1R,5S)-3,8-diazabicyclo[3.2.1]octan-3-yl)-8-fluoro-2-(2-(pyrimidin-2-yl)ethoxy)pyrido[4,3-d]pyrimidin-7-yl)naphthalen-2-ol] yielded an IC50 at KRas G12D [1] of 1.87 µM. At KRas G12D [2], this compound registered an equilibrium dissociation constant (Kd) of 0.464 µM.

`Cn1ccc(COc2nc(N3C[C@H]4CC[C@@H](C3)N4)c3cnc(-c4cc(O)cc5ccccc45)c(F)c3n2)n1` [Example 8, 4-(4-((1R,5S)-3,8-diazabicyclo[3.2.1]octan-3-yl)-8-fluoro-2-((1-methyl-1H-pyrazol-3-yl)methoxy)pyrido[4,3-d]pyrimidin-7-yl)naphthalen-2-ol]: the IC50 on KRas G12D [1] worked out at 1.52 µM. At KRas G12D [2], this compound had a Kd of 2.14 µM.

In turn, `Cn1cnc(COc2nc(N3C[C@H]4CC[C@@H](C3)N4)c3cnc(-c4cc(O)cc5ccccc45)c(F)c3n2)c1` [Example 9, 4-(4-((1R,5S)-3,8-diazabicyclo[3.2.1]octan-3-yl)-8-fluoro-2-((1-methyl-1H-imidazol-4-yl)methoxy)pyrido[4,3-d]pyrimidin-7-yl)naphthalen-2-ol] came in with a 50% inhibitory concentration (IC50) at KRas G12D [1] of 0.821 µM. The compound further registered a Kd on KRas G12D [2] of 0.259 µM.

`CN1CCC[C@H]1COc1nc(N2C[C@H]3CC[C@@H](C2)N3)c2cnc(-c3cc(O)c(Br)c4ccccc34)c(F)c2n1` [Example 14, 4-(4-((1R,5S)-3,8-diazabicyclo[3.2.1]octan-3-yl)-8-fluoro-2-(((S)-1-methylpyrrolidin-2-yl)methoxy)pyrido[4,3-d]pyrimidin-7-yl)-1-bromonaphthalen-2-ol] registered a half-maximal inhibitory concentration (IC50) at KRas G12D [1] of 0.0739 µM. Further, binding at KRas G12D [2] was characterised by a dissociation constant (Kd) of 0.0051 µM.

`Cc1cccc2cccc(-c3ncc4c(N5C[C@H]6CC[C@@H](C5)N6)nc(OC[C@@H]5CCCN5C)nc4c3F)c12` [Example 15, 4-((1R,5S)-3,8-diazabicyclo[3.2.1]octan-3-yl)-8-fluoro-7-(8-methylnaphthalen-1-yl)-2-(((S)-1-methylpyrrolidin-2-yl)methoxy)pyrido[4,3-d]pyrimidine] showed an IC50 at KRas G12D [1] of 0.26 µM. On KRas G12D [2], this compound showed a Kd of 0.208 µM.

The compound `CN1C[C@H](F)C[C@H]1COc1nc(N2C[C@H]3CC[C@@H](C2)N3)c2cnc(-c3cc(O)cc4ccccc34)c(F)c2n1` [Example 16, 4-(4-((1R,5S)-3,8-diazabicyclo[3.2.1]octan-3-yl)-8-fluoro-2-(((2S,4R)-4-fluoro-1-methylpyrrolidin-2-yl)methoxy)pyrido[4,3-d]pyrimidin-7-yl)naphthalen-2-ol] showed an IC50 on KRas G12D [1] of 0.0541 µM. This compound showed a dissociation constant Kd at KRas G12D [2] of 0.0313 µM.

Turning to `C[C@H](CN(C)C)Oc1nc(N2C[C@H]3CC[C@@H](C2)N3)c2cnc(-c3cc(O)cc4ccccc34)c(F)c2n1` [Example 17, 4-(4-((1R,5S)-3,8-diazabicyclo[3.2.1]octan-3-yl)-2-(((R)-1-(dimethylamino)propan-2-yl)oxy)-8-fluoropyrido[4,3-d]pyrimidin-7-yl)naphthalen-2-ol], on KRas G12D [1], the IC50 was found to be 0.666 µM. At KRas G12D [2], this compound came in with a Kd of 2.21 µM.

As for `CN(C)CCOc1nc(N2C[C@H]3CC[C@@H](C2)N3)c2cnc(-c3cc(O)cc4ccccc34)c(F)c2n1` [Example 18, 4-(4-((1R,5S)-3,8-diazabicyclo[3.2.1]octan-3-yl)-2-(2-(dimethylamino)ethoxy)-8-fluoropyrido[4,3-d]pyrimidin-7-yl)naphthalen-2-ol], the IC50 at KRas G12D [1] amounted to 0.0768 µM. Also, on KRas G12D [2], the dissociation constant Kd amounted to 0.0031 µM.

At KRas G12D [1], `CN1CCC[C@H]1COc1nc(N2C[C@H]3CC[C@@H](C2)N3)c2cnc(-c3cccc4ccc(F)cc34)c(F)c2n1` [Example 19, 4-((1R,5S)-3,8-diazabicyclo[3.2.1]octan-3-yl)-8-fluoro-7-(7-fluoronaphthalen-1-yl)-2-(((S)-1-methylpyrrolidin-2-yl)methoxy)pyrido[4,3-d]pyrimidine] came in with an IC50 of 0.122 µM. In addition, the Kd on KRas G12D [2] worked out at 0.665 µM.

For the compound `CN1CCC[C@H]1COc1nc(N2C[C@H]3CC[C@@H](C2)N3)c2cnc(-c3cccc4ccccc34)c(F)c2n1` [Example 20, 4-((1R,5S)-3,8-diazabicyclo[3.2.1]octan-3-yl)-8-fluoro-2-(((S)-1-methylpyrrolidin-2-yl)methoxy)-7-(naphthalen-1-yl)pyrido[4,3-d]pyrimidine], on KRas G12D [1], the IC50 turned out to be 0.692 µM. For the same compound, the Kd at KRas G12D [2] amounted to 0.967 µM.

As to `Oc1cc(-c2ncc3c(N4C[C@H]5CC[C@@H](C4)N5)nc(OCc4ccccc4F)nc3c2F)c2ccccc2c1` [Example 217, 4-(4-((1R,5S)-3,8-diazabicyclo[3.2.1]octan-3-yl)-8-fluoro-2-((2-fluorobenzyl)oxy)pyrido[4,3-d]pyrimidin-7-yl)naphthalen-2-ol], at KRas G12D [2], the affinity, expressed as Kd, was 2.98 µM.
